Broadly, the ΔTm is the shift of the melting midpoint relative to a reference. One may read the KD as the equilibrium constant for the complex coming apart. Low readings indicate tighter binding, high ones weaker binding.

The subject of assay [1] is MYC G4 (Myc2345_T23) (DNA, G4) TGAGGGTGGGTAGGGTGGGTAA
Briefly: ESI mass spectrometry. The following applies: K+ (20 mM potassium phosphate, 80 mM KCl); pH 7.4, 100 μM DNA.

The subject of assay [2] is Myc2345 (DNA, G4) TGAGGGTGGGTAGGGTGGGGAA
In words: ESI mass spectrometry. The following applies: K+ (20 mM potassium phosphate, 80 mM KCl); pH 7.4, 100 μM DNA.

The subject of assay [3] is MYC G4 (Myc2345_T23) (DNA, G4) TGAGGGTGGGTAGGGTGGGTAA
In words: NMR solution structure. The following applies: K+ (2 mM potassium phosphate, 8 mM KCl); pH 7.4, 298 K.

Assay [4] deals with Myc2345 (DNA, G4) TGAGGGTGGGTAGGGTGGGGAA
In words: 1H NMR titration and 15N HSQC.

For assay [5], the system named is MYC G4 (Myc2345_T23) (DNA, G4) TGAGGGTGGGTAGGGTGGGTAA
Briefly: differential scanning calorimetry. Particulars: 100 μM DNA, DNA:ligand 1:4 (400 μM BTO-28), 1.0°C/min.

Assay [6] has as its system Myc2345 (DNA, G4) TGAGGGTGGGTAGGGTGGGGAA
In words: differential scanning calorimetry. Particulars: 100 μM DNA, DNA:ligand 1:4 (400 μM BTO-28), 1.0°C/min. On the technique in general: DSC measures the heat that a sample takes up or gives off during a temperature scan.

The subject of assay [7] is NHE III1 (DNA, G4) TGGGGAGGGTGGGGAGGGTGGGGAAGG
Briefly: differential scanning calorimetry. Particulars: 100 μM DNA, DNA:ligand 1:4 (400 μM BTO-28), 1.0°C/min.

Assay [8] relates to dsDNA (DNA, duplex) CAATCGGATCGAATTCGATCCGATTG
In words: differential scanning calorimetry. Particulars: 100 μM DNA, DNA:ligand 1:4 (400 μM BTO-28), 1.0°C/min.

The subject of assay [9] is 5'-Cy5 MYC G4 (DNA, G4) TGAGGGTGGGTAGGGTGGGTAA
In words: fluorescence polarization, single-site fit. Particulars: K+ (20 mM potassium phosphate, 80 mM KCl); pH 7.4, room temperature, 20 nM DNA; high-affinity site; Cy5 end not given, 5' inferred. (In general: Polarisation of emitted light reports the rotation of a fluorescent probe.)

Assay [10] concerns 3'-Cy5 MYC G4 (DNA, G4) TGAGGGTGGGTAGGGTGGGTAA
Briefly: fluorescence polarization, single-site fit. The following applies: K+ (20 mM potassium phosphate, 80 mM KCl); pH 7.4, room temperature, 20 nM DNA; weaker than 5' end.

For assay [11], the system named is 5'-Cy5 dsDNA (DNA, duplex) CAATCGGATCGAATTCGATCCGATTG
Briefly: fluorescence polarization, single-site fit. Particulars: K+ (20 mM potassium phosphate, 80 mM KCl); pH 7.4, room temperature, 20 nM DNA; ligand 0-2 μM.

Assay [12] has as its system 5'-Cy5 KRAS (DNA, G4) AGGGCGGTGTGGGAAGAGGGAAGAGGGGGAGGCAG
In words: fluorescence polarization, single-site fit. The following applies: K+ (20 mM potassium phosphate, 80 mM KCl); pH 7.4, room temperature, 20 nM DNA; ligand 0-2 μM.

Assay [13] concerns 5'-Cy5 RET (DNA, G4) GGGGCGGGGCGGGGCGGGGG
In words: fluorescence polarization, single-site fit. Particulars: K+ (20 mM potassium phosphate, 80 mM KCl); pH 7.4, room temperature, 20 nM DNA; ligand 0-2 μM.

Assay [14] deals with 5'-Cy5 hTERT (DNA, G4) GGGTTAGGGTTAGGGTTAGGGTTAGGGTTAG
In words: fluorescence polarization, single-site fit. Particulars: K+ (20 mM potassium phosphate, 80 mM KCl); pH 7.4, room temperature, 20 nM DNA; ligand 0-2 μM.

For assay [15], the system named is 5'-Cy5 KIT (DNA, G4) GGGAGGGAGGGCGCTGGGAGGAGGG
Briefly: fluorescence polarization, single-site fit. The following applies: K+ (20 mM potassium phosphate, 80 mM KCl); pH 7.4, room temperature, 20 nM DNA; ligand 0-2 μM.

Turning to `Cc1cc(/C=C2\Sc3ccccc3N2CCCN2CCCC2)c2ccccc2[n+]1C`, the binding result in [1], in [2], in [3], in [4] and in [7] was “yes” in each case. Also, the ΔTm in [5] is 25.6 °C; in [6], 26.0 °C; in assay [8], -4.3 °C. Besides, the dissociation constant (KD) in assay [9] is on record as 6.8 nM; in assay [10] it was 89.80 ± 5.070 nM; in assay [11], above 2000 nM; in [12] it was 670.0 ± 35.09 nM; in assay [13], above 2000 nM; in [14], above 2000 nM. The KD in assay [15] stood at 1246 ± 77.91 nM.
